Laboratory results published in patent publication US4243683A, “Tertiary alcohols” (May & Baker Limited, priority 1977, dated 1981).
Several values for one entry are separate records, joined by “and”; a condition that tells them apart may be missing. Equal entries are not always repeated. Where two headings read alike, the source gives them in different places.

Legend:
[1] = system: uterine contraction in rats; assay: Stimulation of uterine contraction in rats compared with PGE1; format: in vivo, rat; conditions: for Activity (compared with PGE1): intravenous, ratio to PGE1
Procedure: Pregnant anaesthetised rats were treated with the compounds of the invention by the intravenous or intravaginal route and the activity of each compound in stimulating uterine contraction was compared with that of a standard compound, the expensive prostaglandin E1 (PGE1), and expressed as a ratio.

[2] = system: houseflies (Musca domestica L.); assay: Houseflies, injection in dorsal thorax, mortality and egg hatch; format: in vivo; conditions: for % egg hatch: 48 hours; for % mortality: 24 hours, 1440 min
Procedure: Adult houseflies (Musca domestica L.) of mixed sex were injected in the dorsal thorax with 1.0 μl of a solution of a test compound in a mixture of acetone and physiological saline (1:1 v/v). Anaesthesia with carbon dioxide was used, and subsequent holding was at 25° C. A source of honey-water was provided. Fly mortality and oviposition were recorded after 24 hours and egg hatching after 48 hours. Similar, control, experiments were carried out using a mixture of acetone and physiological saline alone.

[3] = system: ticks (Ornithodoros moubata Murray); assay: Ticks, first instar, fed on blood containing test compound; format: in vivo; conditions: 5.0 μg per 0.3 ml blood, 14 days at 30° C.
Procedure: First instar ticks (Ornithodoros moubata Murray) were allowed to engorge through a stretched artificial membrane (Parafilm M) on blood at 37° C. and containing a test compound added in a suitable solvent at a rate of 5.0 μg per 0.3 ml blood. Mortality and moulting were observed after 14 days holding at 30° C.

hamsters = assay: Antifertility in hamsters (termination of pregnancy, subcutaneous); format: in vivo, hamster; conditions: Mesocricetus auratus, sc
Procedure: On the 4th day of pregnancy, hamsters were each injected subcutaneously with an aqueous solution of a compound of formula I (prepared by dissolving the compound in a minimum volume of ethanol and diluting to the appropriate volume with 0.9% w/v saline). On the 7th day of pregnancy the hamsters were killed and their uteri were examined.
Alternatively, the hamsters were dosed on 3 consecutive days (the 3rd, 4th and 5th days of pregnancy) and killed on the 12th day of pregnancy.
The dose required for termination of pregnancy in 50% of the hamsters (ED50) was calculated mathematically.

[4] = system: mosquito larvae (Aedes aegypti L.); assay: Mosquito larvae in water containing test compound; format: in vivo; conditions: 25° C.
Procedure: Mosquito larvae (Aedes aegypti L.), at the late third or early fourth instar stage, were introduced into water containing a small concentration of a test compound, at 25° C. The water also contained 0.4% v/v acetone which had been employed as the vehicle for the introduction of the test compound. The larvae were fed with dried powdered bovine liver after 2 hours. After 24 hours at 25° C. a mortality count was made, and subsequent metamorphosis and emergence as adults were observed after seven days at 25° C., and compared with controls.

[5] = system: Lucilia sericata prepupae; assay: Lucilia pupae, topical treatment of prepupae; format: in vivo
Procedure: Lucilia sericata prepupae (taken from a batch of the insects of which approximately 50% were pupated) in groups of 10 were each treated topically with 1 μl of a solution of a test compound in acetone. Controls were treated with acetone alone. The insects were stored in the dark at 30° C. for 8 days, and then the number of insects which had hatched as normal adult flies, and any other effects, were observed.

female rats = conditions: rat, in vivo, po, 1 mg/kg
Procedure: (§1) In tests, four female rats and one female dog were each dosed orally with compound A at a rate of 1.0 mg/kg animal body weight. Before administration to the animals the compound was dissolved in a minimum quantity of a 1% w/w solution of Tween 80 emulsifier ("Tween" is a registered Trade Mark) in ethanol, and the resulting solution was diluted with distilled water to a concentration of 0.02% w/w.

female dog = conditions: in vivo, po, 1 mg/kg
Procedure: as §1

[6] = Musca domestica, 24 h, 0.5 μg/fly
[7] = 168 h, dosed 4th day of pregnancy, examined day 7, read-out: ED50 (dose required for termination of pregnancy in 50% of the hamsters)
[8] = 288 h, dosed 3rd, 4th and 5th days of pregnancy, examined day 12, read-out: ED50 (dose required for termination of pregnancy in 50% of the hamsters)
[9] = Musca domestica, 24 h, 0.25 μg/fly
[10] = test 1, 1.0 μg/prepupa, 8 days at 30° C., control 10

SMILES | Activity (compared with PGE1) [1] | % egg hatch ([2]; 0.5 μg/fly) | mortality at 0.5 µg/fly [2, 6] [%] | % mortality [3] [%] | % moulting normally [3] [%] | further results
C[C@@H](C/C=C/C(=O)CCc1ccccc1)CCCC(C)(C)O [G, (R)-2-hydroxy-2,6-dimethyl-12-phenyldodec-8-trans-en-10-one] | 0.67 | no eggs | 60 | 0 | 0 | % egg hatch ([2]; 0.1 μg/fly): 100%; mortality at 0.1 µg/fly ([2]; Musca domestica, 24 h, 0.1 μg/fly): 60%; ED50 (hamsters; [7]): 5 mg/kg; ED50 (hamsters; [8]): 4 mg/kg
C[C@@H](C/C=C/C(=O)CCc1ccccc1Cl)CCCC(C)(C)O [N, (R)-12-(2-chlorophenyl)-2-hydroxy-2,6-dimethyldodec-8-trans-en-10-one] | – | 100% | 50 | 0 | 0 | % egg hatch ([2]; 0.25 μg/fly): 100%; % mortality ([2]; 0.5 μg/fly): 60%; mortality at 0.25 µg/fly [2, 9]: 40%
C[C@@H](C/C=C/C(=O)COc1ccc(Cl)cc1)CCCC(C)(C)O [C, (R)-11-(4-chlorophenoxy)-2-hydroxy-2,6-dimethylundec-8-trans-en-10-one] | 0.32 | – | – | – | – | –
C[C@@H](C/C=C/C(=O)CCCc1ccccc1)CCCC(C)(C)O [F, (R)-2-hydroxy-2,6-dimethyl-13-phenyltridec-8-trans-en-10-one] | 0.91 | – | – | – | – | –
C[C@@H](C/C=C/C(O)CCc1ccccc1)CCCC(C)(C)O (stereo partly drawn) [R, (6R,10RS)-2,6-dimethyl-12-phenyldodec-8-trans-ene-2,10-diol] | 0.14 | – | – | 0 | 0 | larvae killed within 24 hours ([4]; 0.08 parts per million w/v): all; mortality at 0.04 µg/mL ([4]; Aedes aegypti, 24 h, 0.04 parts per million, read-out: larvae killed within 24 hours): ~50%; % egg hatch ([2]; 0.25 μg/fly): 100%; mortality at 0.25 µg/fly [2, 9]: 40%; ED50 (hamsters; [8]): 0.5 mg/kg
CCCCC(C)(C)C(=O)/C=C/C[C@H](C)CCCC(C)(C)O [K, (R)-2-hydroxy-2,6,11,11-tetramethylpentadec-8-trans-en-10-one] | 0.57 | – | – | – | – | ED50 (hamsters; [8]): < 0.5 mg/kg
C[C@@H](C/C=C/C(O)COc1ccccc1)CCCC(C)(C)O (stereo partly drawn) [P, (6R,10RS)-2,6-dimethyl-11-phenoxyundec-8-trans-ene-2,10-diol] | 0.14 | no eggs | 50 | 0 | 0 | Number hatched (out of 10) [5, 10]: 1 out of 10
C[C@@H](C/C=C/C(O)CCCc1ccccc1)CCCC(C)(C)O (stereo partly drawn) [S, (6R,10RS)-2,6-dimethyl-13-phenyltridec-8-trans-ene-2,10-diol] | – | – | 30 | 29 | 17 | % egg hatch ([2]; 0.25 μg/fly): 100%; % mortality ([2]; 0.5 μg/fly): 40%; mortality at 0.25 µg/fly [2, 9]: 20%
C[C@@H](C/C=C/C(=O)Cc1ccccc1)CCCC(C)(C)O [I, (R)-2-hydroxy-2,6-dimethyl-11-phenylundec-8-trans-en-10-one] | 0.09 | – | – | – | – | –
C[C@@H](C/C=C/C(=O)CCc1cccc(Cl)c1)CCCC(C)(C)O [M, (R)-12-(3-chlorophenyl)-2-hydroxy-2,6-dimethyldodec-8-trans-en-10-one] | – | 0% | – | 0 | 0 | % egg hatch ([2]; 0.25 μg/fly): 100%; % mortality ([2]; 0.5 μg/fly): 80% and 40%; mortality at 0.25 µg/fly [2, 9]: 30%
C[C@@H](C/C=C/C(=O)CCc1ccc(Cl)cc1)CCCC(C)(C)O [L, (R)-12-(4-chlorophenyl)-2-hydroxy-2,6-dimethyldodec-8-trans-en-10-one] | – | no eggs | 80 | 0 | 0 | –
CCCCC(C)(C)C(O)/C=C/C[C@H](C)CCCC(C)(C)O (stereo partly drawn) [Compound T, (6R,10RS)-2,6,11,11-tetramethylpentadec-8-trans-ene-2,10-diol] | – | – | – | – | – | ED50 (hamsters; [7]): 2 mg/kg
CCCCCC(=O)/C=C/C[C@H](C)CCCC(C)(C)O [J, (R)-2-hydroxy-2,6-dimethylpentadec-8-trans-en-10-one] | 0.02 | – | – | – | – | –
C[C@@H](C/C=C/C(=O)COc1ccccc1Cl)CCCC(C)(C)O [B, (R)-11-(2-chlorophenoxy)-2-hydroxy-2,6-dimethylundec-8-trans-en-10-one] | 1.2 | – | – | – | – | –
CCCCCC(O)/C=C/C[C@H](C)CCCC(C)(C)O (stereo partly drawn) [Q, (6R,10RS)-2,6-dimethylpentadec-8-trans-ene-2,10-diol] | 0.05 | no eggs | 70 | 0 | 0 | Number hatched (out of 10) [5, 10]: 0 out of 10; Number hatched (out of 10) ([5]; test 2, 0.2 μg/prepupa, control 7): 6 out of 10; Number hatched (out of 10) ([5]; test 2, 0.4 μg/prepupa, control 7): 5 out of 10; Number hatched (out of 10) ([5]; test 2, 0.6 μg/prepupa, control 7): 1 out of 10; Number hatched (out of 10) ([5]; test 2, 0.8 μg/prepupa, control 7): 0 out of 10; Number hatched (out of 10) ([5]; test 2, 1.0 μg/prepupa, 8 days at 30° C., control 7): 2 out of 10; ED50 (hamsters; [8]): 2 mg/kg
C[C@@H](C/C=C/C(=O)COc1cccc(Cl)c1)CCCC(C)(C)O [O, (R)-11-(3-chlorophenoxy)-2-hydroxy-2,6-dimethylundec-8-trans-en-10-one] | 0.91 | – | – | – | – | –
C[C@@H](C/C=C/C(=O)COc1ccccc1)CCCC(C)(C)O [A, (R)-2-hydroxy-2,6-dimethyl-11-phenoxyundec-8-trans-en-10-one] | 3.7 | – | – | – | – | times as active as PGE1 ([1]; pervaginal): over 100 times; Number hatched (out of 10) ([5]; test 3, 1.0 μg/prepupa, control 9): 2 out of 10; ED50 (hamsters; [8]): ~2 mg/kg; weight loss (female rats): no weight loss; weight loss (female dog): no weight loss
